Experimental data: patent EP2812315B1, “PYRROLIC DERIVATIVES, PROCESSES FOR PREPARING THE SAME AND THEIR USES AS A DRUG” (Universite Joseph Fourier, priority 2012, dated 2013)
In brackets after ≈: the same amount, converted by molar mass.

Tests used:
Type in all cases: cell-based
[1] = tested on: HCT116 (human colon tumor); assay: In vitro cytotoxicity; details: triplicate; for inhibition at 10 µM: HCT-116, 10^-5 M in DMSO, read-out: % of cellular growth inhibition; for inhibition at 1 µM: HCT-116, 10^-6 M in DMSO, read-out: % of cellular growth inhibition (converted)
Method: (§1) In vitro cytotoxicity was assayed on three cell lines - KB (human mouth carcinoma), MCR5 (human lung fibroblast) and HCT116 (human colon tumor). Results are presented in table III as % of cellular growth inhibition in presence of 10^-5 M and 10^-6 M of the tested bis-pyrrolic derivatives in DMSO (triplicate).

[2] = tested on: KB (human mouth carcinoma); assay: In vitro cytotoxicity; details: triplicate; for inhibition at 10 µM: 10^-5 M in DMSO, read-out: % of cellular growth inhibition; for inhibition at 1 µM: 10^-6 M in DMSO, read-out: % of cellular growth inhibition (converted)
Method: as §1

MRC5 = assay: In vitro cytotoxicity; details: MRC5 (human lung fibroblast), triplicate; for inhibition at 10 µM: 10^-5 M in DMSO, read-out: % of cellular growth inhibition; for inhibition at 1 µM: 10^-6 M in DMSO, read-out: % of cellular growth inhibition (converted)
Method: as §1

[3] = tested on: Staphylococcus aureus (MSSA476); assay: Other MIC determination, microdilution method (CLSI M07-A9) with modifications; details: 10^6 CFU/ml, 18h at 37 °C
Method: (§2) The microdilution method recommended by the Clinical and Laboratory Standard Institute [M07-A9, Vol.32, N°2] was used with the following modifications.
(§3) Bacterial inocula were prepared in Mueller Hinton broth (MH2, BioMérieux, Marcy L'Etoile, France). They were dispensed in 96 well microtiter plates (10^6 CFU/ml of final inoculum, 192 µL per well).
(§4) To avoid cross-contaminations in microtiter plates, one row was left blank between each strain tested. Microplates were incubated for 18h at 37 °C in ambient air. Then MICs were read visually and, in case of visual reading difficulties, confirmed using a spectrophotometer at a wavelength of 630 nm (BioTek® EL808 Absorbance Microplate Reader). MICs corresponded to the minimum pyrrolic compound concentrations that allowed complete visual growth inhibition of bacteria. Drug-free cultures served as growth controls.
(§5) We used four Staphylococcus aureus strains. Two reference strains were provided by the French reference center for Staphylococcus spp. (Lyon, France), including one methicillin-susceptible (MSSA 476) and one methicillin-resistant (MRSA 252) S. aureus strains. The two remaining S. aureus strains were purchased from the CRBIP (Centre de Ressources Biologiques de l'Institut Pasteur): a vancomycin-intermediate strain (ATCC 106414) and a S. aureus strain (SA-1199B) resistant to fluoroquinolones due to overexpression of the NorA multidrug efflux pump. Coagulase-negative Staphylococcus strains included three reference strains purchased from CRBIP: a methicillin-susceptible S. epidermidis strain (ATCC 12228), a methicillin-resistant S. epidermidis strain (ATCC 49461), and a methicillin-susceptible S. sciuri strain (ATCC 29061). We also used 37 clinical strains belonging to the following coagulase-negative Staphylococcus species: S. arlettae (two strains), S. capitis (nine strains), S. epidermidis (one strain), S. haemolyticus (six strains), S. hominis (eight strains), S. lugdunensis (one strain), S. massiliensis (one strain), S. pettenkoferi (two strains), S. saprophyticus (two strains), S. simulans (one strain), and S. warneri (four strains) . Identification of the clinical strains was first obtained using VITEK® 2 System (Biomérieux) and confirmed by amplification and sequencing of the tuf gene (Reference: Bergeron, M., O. Dauwalder, M. Gouy, A.-M. Freydiere, M. Bes, H. Meugnier, Y. Benito, J. Etienne, G. Lina, F. Vandenesch, and S. Boisset. Species identification of staphylococci by amplification and sequencing of the tuf gene compared to the gap gene and by matrix-assisted laser desorption ionization time-of-flight mass spectrometry, Eur. J. Clin. Microbial. Infect. Dis. 2011, 30, 343-354).
(§6) The activity of pyrrolic compounds 3c, 3e-3j and 3n was first tested against 12 Staphylococcus sp. strains, including 7 reference strains and five clinical strains. The MICs of these compounds against Staphylococcus aureus ATCC 106414 (VISA) and Staphylococcus epidermidis ATCC 12228 are in accordance with those described in Tables I and II.

[4] = tested on: Staphylococcus pettenkoferi (CHUG-Spet1); assay: as above; details: 10^6 CFU/ml, 18h at 37 °C
Method: as §2, §3, §4, §5, §6

[5] = tested on: Staphylococcus hominis(CHUG-Shom1); assay: as above; details: 10^6 CFU/ml, 18h at 37 °C
Method: as §2, §3, §4, §5, §6

[6] = tested on: Staphylococcus aureus (MRSA 252); assay: as above; details: 10^6 CFU/ml, 18h at 37 °C
Method: as §2, §3, §4, §5, §6

[7] = tested on: Staphylococcus epidermidis (ATCC 12228); assay: as above; details: ATCC12228, 10^6 CFU/ml, 18h at 37 °C
Method: as §2, §3, §4, §5, §6

[8] = tested on: Staphylococcus aureus MRSA 252 CNR HT 2006 0436; assay: Determination of the minimum bactericidal concentration (MBC), macro-method; details: 18 hours incubation, initial bacterial load 9500000
Method: (§7) The MBC against two different strains of Staphylococcus aureus, one susceptible to methicillin (MSSA 476 CNR HT 2006 0437) and one resistant to methicillin (MRSA 252 CNR HT 2006 0436) obtained from Centre National de Reference des Staphylocoques (Lyon, France) were determined using a macro-method. Sterile tubes were filled with a primary bacterial inoculum prepared in Mueller Hinton broth as above (10^6 CFU/ml of final inoculum) and pyrrolic compounds were added at twofold serial concentrations (0.5-128 mg/L of final concentrations for 3h and 3i and 0.0625-128mg/L of final concentration for 3n). After 18 hours incubation of cultures, ten-fold serial dilutions of the cultures with no visible bacterial growth and of the first tube showing visible bacterial growth were prepared. Then 100µl of each dilution were inoculated to Mueller Hinton agar media for 24-48 hours. CFU counts were then determined and the MBC corresponded to the minimal pyrrolic compound concentration for which 99.9% of more bacterial cells were killed after 18 hours of incubation.
(§8) However, this reduction was only 1-2 log CFU/ml, and thus MBC could not be determined (tables VI and VII). Table VI: MBC against Staphylococcus aureus MRSA 252 CNR HT 2006 0436

[9] = tested on: Staphylococcus aureus MSSA 476 CNR HT 2006 0437; assay: as above; details: 18 hours incubation, initial bacterial load 7,70E+05
Method: as §7, §8

SMILES: CC(=O)c1c(C)[nH]c(C(c2cc3ccccc3s2)c2[nH]c(C)c(C(C)=O)c2C)c1C [3f]
- inhibition at 10 µM [1]: 19 ± 4%
- inhibition at 10 µM [2]: 23 ± 3%
- inhibition at 10 µM (MRC5): 0%
- MIC [3]: 4 µg/mL (≈ 9.56 µM)
- MIC [4]: > 32 µg/mL
- MIC [5]: > 32 µg/mL
- MIC [6]: 4 µg/mL (≈ 9.56 µM)
- MIC [7]: > 32 µg/mL

SMILES: CC(=O)c1c(C)[nH]c(C(c2ccc(F)cc2)c2[nH]c(C)c(C(C)=O)c2C)c1C [3g]
- inhibition at 10 µM [1]: 3 ± 6%
- inhibition at 10 µM [2]: 11 ± 3%
- inhibition at 10 µM (MRC5): 2 ± 1%
- MIC [3]: 4 µg/mL (≈ 10.5 µM)
- MIC [4]: > 32 µg/mL
- MIC [5]: > 32 µg/mL
- MIC [6]: 8 µg/mL (≈ 21 µM)
- MIC [7]: > 32 µg/mL

SMILES: CC(=O)c1c(C)[nH]c(C(c2[nH]c(C)c(C(C)=O)c2C)c2csc3ccc(Br)cc23)c1C [3n]
- inhibition at 10 µM [1]: 83 ± 1%
- inhibition at 1 µM [1]: 47%
- inhibition at 10 µM [2]: 100 ± 1%
- inhibition at 1 µM [2]: 81%
- inhibition at 10 µM (MRC5): 96 ± 1%
- inhibition at 1 µM (MRC5): 67%
- CFU counts (bacterial load) ([8]; concentration 0,5 mg/L): 2,90E+05 CFU/ml
- CFU counts (bacterial load) ([8]; concentration 0,25 mg/L): 2,80E+05 CFU/ml
- CFU counts (bacterial load) ([8]; concentration 1 mg/L): 3,00E+05 CFU/ml
- CFU counts (bacterial load) ([8]; concentration 2 mg/L): 4,20E+05 CFU/ml
- CFU counts (bacterial load) ([8]; concentration 4 mg/L): 4,20E+05 CFU/ml
- CFU counts (bacterial load) ([8]; concentration 8 mg/L): 3,40E+05 CFU/ml
- CFU counts (bacterial load) ([8]; concentration 16 mg/L): 3,80E+05 CFU/ml
- CFU counts (bacterial load) ([8]; concentration 0,125 mg/L): 1,00E+06 CFU/ml
- CFU counts (bacterial load) ([8]; concentration 0,0625 mg/L): 2,90E+07 CFU/ml
- CFU counts (bacterial load) ([9]; concentration 0,5 mg/L): 2,78E+05 CFU/ml
- CFU counts (bacterial load) ([9]; concentration 0,25 mg/L): 2,10E+06 CFU/ml
- CFU counts (bacterial load) ([9]; concentration 1 mg/L): 1,76E+05 CFU/ml
- CFU counts (bacterial load) ([9]; concentration 2 mg/L): 2,70E+05 CFU/ml
- CFU counts (bacterial load) ([9]; concentration 4 mg/L): 2,71E+05 CFU/ml
- CFU counts (bacterial load) ([9]; concentration 16 mg/L): 4,41E+05 CFU/ml
- CFU counts (bacterial load) ([9]; concentration 32 mg/L): 4,47E+05 CFU/ml
- CFU counts (bacterial load) ([9]; concentration 64 mg/L): 4,50E+05 CFU/ml
- CFU counts (bacterial load) ([9]; concentration 0,125 mg/L): 8,00E+07 CFU/ml
- CFU counts (bacterial load) ([9]; concentration 128 mg/L): 3,50E+05 CFU/ml
- CFU counts (bacterial load) ([9]; concentration 0,0625 mg/L): 2,15E+08 CFU/ml
- MIC [3]: 0.125 µg/mL (≈ 0.251 µM)
- MIC [4]: > 32 µg/mL
- MIC [5]: > 32 µg/mL
- MIC [6]: 0.125 µg/mL (≈ 0.251 µM)
- MIC [7]: > 32 µg/mL

SMILES: CC(=O)c1c(C)[nH]c(C(c2[nH]c(C)c(C(C)=O)c2C)c2cccc3ccccc23)c1C [3h]
- inhibition at 10 µM [1]: 53 ± 2%
- inhibition at 1 µM [1]: 5%
- inhibition at 10 µM [2]: 54 ± 4%
- inhibition at 1 µM [2]: 0%
- inhibition at 10 µM (MRC5): 25 ± 4%
- inhibition at 1 µM (MRC5): 0%
- CFU counts (bacterial load) ([8]; concentration 0,5 mg/L): 2,10E+08 CFU/ml
- CFU counts (bacterial load) ([8]; concentration 1 mg/L): 7,50E+07 CFU/ml
- CFU counts (bacterial load) ([8]; concentration 2 mg/L): 5,60E+05 CFU/ml
- CFU counts (bacterial load) ([8]; concentration 4 mg/L): 5,50E+05 CFU/ml
- CFU counts (bacterial load) ([8]; concentration 8 mg/L): 2,40E+05 CFU/ml
- CFU counts (bacterial load) ([8]; concentration 16 mg/L): 3,20E+05 CFU/ml
- CFU counts (bacterial load) ([8]; concentration 32 mg/L): 4,20E+05 CFU/ml
- CFU counts (bacterial load) ([8]; concentration 64 mg/L): 5,59E+05 CFU/ml
- CFU counts (bacterial load) ([8]; concentration 128 mg/L): 6,28E+05 CFU/ml
- CFU counts (bacterial load) ([9]; concentration 2 mg/L): 1,63E+08 CFU/ml
- CFU counts (bacterial load) ([9]; concentration 4 mg/L): 3,20E+05 CFU/ml
- CFU counts (bacterial load) ([9]; concentration 8 mg/L): 3,34E+05 CFU/ml
- CFU counts (bacterial load) ([9]; concentration 16 mg/L): 3,20E+05 CFU/ml
- CFU counts (bacterial load) ([9]; concentration 32 mg/L): 3,70E+05 CFU/ml
- CFU counts (bacterial load) ([9]; concentration 64 mg/L): 3,90E+05 CFU/ml
- CFU counts (bacterial load) ([9]; concentration 128 mg/L): 4,30E+05 CFU/ml
- MIC [3]: 1 µg/mL (≈ 2.42 µM)
- MIC [4]: > 32 µg/mL
- MIC [5]: > 32 µg/mL
- MIC [6]: 2 µg/mL (≈ 4.85 µM)
- MIC [7]: > 32 µg/mL

SMILES: CC(=O)c1c(C)[nH]c(C(c2ccc(Cl)cc2)c2[nH]c(C)c(C(C)=O)c2C)c1C [3c]
- inhibition at 10 µM [1]: 17 ± 11%
- inhibition at 10 µM [2]: 27 ± 7%
- inhibition at 10 µM (MRC5): 9 ± 1%
- MIC [3]: 4 µg/mL (≈ 10.1 µM)
- MIC [4]: > 32 µg/mL
- MIC [5]: > 32 µg/mL
- MIC [6]: 8 µg/mL (≈ 20.2 µM)
- MIC [7]: > 32 µg/mL

SMILES: COC(=O)c1cccc(C(c2[nH]c(C)c(C(C)=O)c2C)c2[nH]c(C)c(C(C)=O)c2C)c1 [3j, Methyl-3-[bis(4-acetyl-3,5-dimethyl-1H-pyrrol-2-yl)methyl]benzoate]
- inhibition at 10 µM [1]: 1 ± 3%
- inhibition at 10 µM [2]: 11 ± 3%
- inhibition at 10 µM (MRC5): 5 ± 1%
- MIC [3]: 4 µg/mL (≈ 9.51 µM)
- MIC [4]: > 32 µg/mL
- MIC [5]: > 32 µg/mL
- MIC [6]: 8 µg/mL (≈ 19 µM)
- MIC [7]: > 32 µg/mL

SMILES: CC(=O)c1c(C)[nH]c(C(c2cc3ccccc3o2)c2[nH]c(C)c(C(C)=O)c2C)c1C [3e]
- inhibition at 10 µM [1]: 24 ± 6%
- inhibition at 10 µM [2]: 2 ± 3%
- inhibition at 10 µM (MRC5): 7 ± 1%
- MIC [3]: 4 µg/mL (≈ 9.94 µM)
- MIC [4]: > 32 µg/mL
- MIC [5]: > 32 µg/mL
- MIC [6]: 8 µg/mL (≈ 19.9 µM)
- MIC [7]: > 32 µg/mL
